Results published in US11583507B2, “Direct AMPK activator compounds” (SOCIETE DES PRODUITS NESTLE S.A., priority 2018, dated 2023).

Experiments:
AMPKα2β1γ1 (211) = target: T1, AMPKα2β1γ1 (211) (Homo sapiens, UniProt P54619+P54646+Q9Y478); assay: AMPK in vitro activity assay (HTRF-KinEASE), phosphorylated bacterially-expressed complex; format: biochemical; settings: fold activation vs complex without compound; 30 mins incubation
T1 construct: His; made in house; host or cells: bacteria
Protocol: (§1) Lusianthridin (CAS 87530-30-1) was isolated from Thunia alba fruit. It was sourced from Analyticon (NP-012362). The plant was purchased through Analyticon's biomaterial supplier in 2003. The country of origin is Nepal. The AMPK heterotrimers were expressed in bacteria and purified through the His-α subunit by nickel purification. AMPK complexes were purified through gel filtration and phosphorylated by incubation with CaMKKβ, and further purified with a final gel filtration purification step. Phosphorylated purified AMPK was incubated with varying concentrations of ligand for 30 mins using substrate and reagents from the HTRF-KinEASE Cisbio assay kit (STK S1 Kit). Phosphorylation of the substrate was measured by incubating with donor and acceptor antibodies for 2 h at room temperature as per the manufacturer's protocol (and Coulerie et al., (2016) PMID: 27792327) and phosphorylated peptide detected by performing HTRF. The 665 nm/620 nm ratio was determined and the results are plotted as fold activation compared to the respective AMPK complex without any compound.

AMPKα1β1γ1 (111) = target: T2, AMPKα1β1γ1 (111) (Homo sapiens, UniProt P54619+Q13131+Q9Y478); assay: AMPK in vitro activity assay (HTRF-KinEASE), α1-containing complex; format: biochemical; settings: fold activation vs complex without compound
T2 construct: His; made in house; host or cells: bacteria
Protocol: as §1

[1] = target: T3, AMPK α2β1γ1 S108A mutant (211 S108A) (Homo sapiens, UniProt P54619+P54646+Q9Y478, S108A); assay: AMPK in vitro activity assay (HTRF-KinEASE), β1 S108A mutant; format: biochemical
T3 construct: His; made in house; host or cells: bacteria
Protocol: as §1

[2] = system: AMPK substrate, acetyl-CoA carboxylase (ACC); assay: pACC HTRF assay in U2OS Flp-In T-REx cells; format: cell-based; settings: 1 h, varying concentrations, dose-dependent
Protocol: U2OS Flp-In T-REx cells were seeded at 100 K in a 96-well plate and left overnight at 37 C in DMEM GlutaMAX (Thermo Fisher Scientific) supplemented with 10% (vol/vol) FBS and 100 U/ml penicillin G, and 100 μg/ml streptomycin. Cells were treated for 1 h with varying concentrations of Lusianthridin in media lacking FBS and then cells were lysed in 50 μl of Cisbio lysis buffer #1 supplemented with blocking solution as per the manufacturer's protocol (Cisbio). Cells were lysed for 30 mins at room temperature before 16 μl of lysate was incubated with 4 μl of the HTRF antibodies (1:40 dilution of the acceptor and donor (p)ACC antibodies, as per the manufacturers protocol). Lysates were incubated overnight with the antibodies before 665 nm/620 nm ratio was determined using a MolecularDevices i3 plate reader (with a HTRF cartridge add-on). For western blot analysis, SDS-sample buffer was added to the remainder of the lysate, denatured at 95 C and then subjected to western blot analysis with phospho-specific and total ACC antibodies (Cell Signalling). Bands were visualized by incubating with Li-Cor secondary antibody and scanned on a Li-Cor Odyssey machine.

AMPK substrate, ACC = assay: pACC HTRF assay in mouse primary hepatocytes; format: cell-based; settings: 1 h incubation at 37 C, dose-dependent
Protocol: Hepatocyte isolation: The liver was first perfused with 50 ml perfusion buffer (Krebs-Hepes buffer with […] EDTA), followed with 50 ml collagenase A buffer (Krebs-Hepes buffer with 5 mM CaCl2 and 0.5 mg/ml collagenase). […] Hepatocytes were left to attach (3-4 h) and cultured overnight in M199 supplemented with antibiotics and 100 nM dexamethasone. Cells were used for experiments the following morning. Primary hepatocytes were seeded at 15 K cells in a 96-well plate overnight. Cells were treated for 1 h with varying concentrations of Lusianthridin in media and then cells were lysed in 50 μl of Cisbio lysis buffer #1 supplemented with blocking solution as per the manufacturer's protocol (Cisbio). Cells were lysed for 30 mins at room temperature before 16 μl of lysate was incubated with 4 μl of the HTRF antibodies. Lysates were incubated overnight with the antibody before 665 nm/620 nm ratio was determined using a MolecularDevices i3 plate reader (with a HTRF cartridge add-on).

[3] = system: differentiated C2C12 cells; assay: Glucose uptake (3H-2-deoxyglucose) into differentiated C2C12 cells; format: cell-based; settings: Lusianthridin 100 μM for 4 h at 37 C
Protocol: C2C12 cells were maintained in DMEM GlutaMAX supplemented with 10% (vol/vol) FBS and 100 U/ml penicillin G, and 100 μg/ml streptomycin. C2C12 myoblasts were differentiated into myotubes by 7 days of culture in DMEM GlutaMAX supplemented with 2% (vol/vol) horse serum and antibiotics. Cells were transferred to serum-free media for 24 hours, before equilibrating with bicarbonate-free medium prior to treatment. Cells were treated with Control (DMSO 1% final concentration) or 100 μM Lusianthridin in the presence of ^3H-2-deoxyglucose (in Krebs-Hepes buffer containing sodium pyruvate). Cells were lysed and the quantity of ^3H determined in these samples using a scintillation counter.
Activation of AMPK in muscle cells has been previously shown to increase glucose uptake. […] Differentiated C2C12 cells were treated with either control or 100 μM Lusianthridin for 4 h at 37 C. Glucose uptake was determined by monitoring the uptake of ^3H-2-deoxyglucose into cells. […] This is consistent with the important role of AMPK in mediating glucose uptake in muscle.

[4] = system: AMPK β1 WT (phosphorylation of ACC); assay: pACC (HTRF and western blot) in AMPKβ1/β2 double knockout U2-OS Flp-In T-Rex cells stably expressing β1 WT; format: cell-based, human
Text: (§2) AMPKβ1/β2 double knockout U2-OS Flp-In™ T-Rex™ cell lines were generated by Horizon Discovery (Cambridge, UK). Cells were genotyped and analysed by western blotting to confirm that there was a complete knockout of AMPKβ1/β2. We took these AMPKβ1/β2 double knockout cells, and re-introduced the expression of human β1 wild-type (WT) or a β1 Serine 108 to alanine mutation (S108A). This was achieved using the Flp-In™ system (Invitrogen) present in this cell line and stable cells expressing β1 WT or a β1 S108A mutant were generated according to the manufacturers' protocols. Re-expression of the β1 subunit was confirmed by western blot analysis.
(§3) Cells stably expressing β1 WT or a β1 S108A mutant were treated with varying concentrations of Lusianthridin and subjected to the pACC HTRF (Cisbio) assay or western blot analysis to determine phosphorylation of the AMPK substrate, ACC, in cells lysates. Western blots were quantified using the LI-COR odyssey system and shown as the ratio of the antibody signal from pACC divided by total ACC.

[5] = system: AMPK β1 S108A mutant (phosphorylation of ACC); assay: pACC (HTRF and western blot) in AMPKβ1/β2 double knockout U2-OS Flp-In T-Rex cells stably expressing β1 S108A mutant; format: cell-based, human
Text: as §2, §3

[6] = varying concentrations, 30 mins at 37 C

T2 sequence (Q13131 whole entry): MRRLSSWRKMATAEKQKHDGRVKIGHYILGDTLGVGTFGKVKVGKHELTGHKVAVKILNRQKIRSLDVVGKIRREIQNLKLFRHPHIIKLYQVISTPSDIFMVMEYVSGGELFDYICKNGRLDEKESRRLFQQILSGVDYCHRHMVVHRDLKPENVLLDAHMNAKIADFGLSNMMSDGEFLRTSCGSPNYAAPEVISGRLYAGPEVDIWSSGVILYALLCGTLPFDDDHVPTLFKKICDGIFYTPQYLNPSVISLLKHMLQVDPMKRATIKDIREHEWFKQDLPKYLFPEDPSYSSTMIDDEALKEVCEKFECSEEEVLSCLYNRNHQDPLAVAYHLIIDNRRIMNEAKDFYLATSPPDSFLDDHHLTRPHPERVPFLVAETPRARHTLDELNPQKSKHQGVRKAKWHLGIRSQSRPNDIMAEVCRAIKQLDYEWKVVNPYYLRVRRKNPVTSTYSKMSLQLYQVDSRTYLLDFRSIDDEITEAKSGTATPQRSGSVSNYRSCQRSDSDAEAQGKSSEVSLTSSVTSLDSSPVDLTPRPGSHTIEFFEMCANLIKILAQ
T2 sequence (Q9Y478 whole entry): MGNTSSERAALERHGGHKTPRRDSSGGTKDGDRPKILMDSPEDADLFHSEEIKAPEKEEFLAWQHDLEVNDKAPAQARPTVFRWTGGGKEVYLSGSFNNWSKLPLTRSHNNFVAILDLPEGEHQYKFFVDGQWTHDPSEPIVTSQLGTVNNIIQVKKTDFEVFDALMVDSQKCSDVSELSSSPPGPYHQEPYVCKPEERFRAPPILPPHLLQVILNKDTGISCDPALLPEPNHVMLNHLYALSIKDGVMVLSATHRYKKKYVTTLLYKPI
T2 sequence (P54619 whole entry): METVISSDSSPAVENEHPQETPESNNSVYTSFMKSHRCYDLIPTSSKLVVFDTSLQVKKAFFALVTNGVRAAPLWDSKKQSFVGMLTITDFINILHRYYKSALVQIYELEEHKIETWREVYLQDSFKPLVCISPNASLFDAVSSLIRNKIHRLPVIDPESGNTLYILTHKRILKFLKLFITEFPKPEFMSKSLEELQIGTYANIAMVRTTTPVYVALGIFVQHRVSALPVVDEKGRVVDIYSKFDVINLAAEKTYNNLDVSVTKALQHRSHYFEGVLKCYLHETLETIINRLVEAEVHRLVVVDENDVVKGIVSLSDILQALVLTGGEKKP
T3 sequence (P54646 whole entry): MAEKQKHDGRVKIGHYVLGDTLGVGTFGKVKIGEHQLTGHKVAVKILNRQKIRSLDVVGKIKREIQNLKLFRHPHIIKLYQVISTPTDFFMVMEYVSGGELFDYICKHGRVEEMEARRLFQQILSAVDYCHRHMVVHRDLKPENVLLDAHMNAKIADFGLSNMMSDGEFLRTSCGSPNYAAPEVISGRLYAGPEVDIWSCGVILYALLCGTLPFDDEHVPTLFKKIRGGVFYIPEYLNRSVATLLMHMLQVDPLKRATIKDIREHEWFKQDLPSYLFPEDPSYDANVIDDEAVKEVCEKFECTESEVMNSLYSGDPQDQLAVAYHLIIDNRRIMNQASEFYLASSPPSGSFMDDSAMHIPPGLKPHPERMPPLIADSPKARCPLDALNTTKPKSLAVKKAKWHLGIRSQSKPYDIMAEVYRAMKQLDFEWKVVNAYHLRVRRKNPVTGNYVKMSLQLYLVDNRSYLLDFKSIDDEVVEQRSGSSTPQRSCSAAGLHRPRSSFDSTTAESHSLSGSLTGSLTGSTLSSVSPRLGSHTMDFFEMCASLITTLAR
T3 sequence (Q9Y478 whole entry S108A): as the sequence (Q9Y478 whole entry) above, with S108A counted along it
T3 sequence (P54619 whole entry): as the sequence (P54619 whole entry) above
T1 sequence (P54646 whole entry): as the sequence (P54646 whole entry) above
T1 sequence (Q9Y478 whole entry): as the sequence (Q9Y478 whole entry) above
T1 sequence (P54619 whole entry): as the sequence (P54619 whole entry) above

- activation of bacterially-expressed AMPKα2β1γ1 complexes (AMPKα2β1γ1 (211)): Activates
- activation of bacterially-expressed AMPKα1β1γ1 complexes (AMPKα1β1γ1 (111)): Activates
- activation of AMPK complexes with the β1 S108A mutation [1]: does not activate
SMILES: COc1cc(O)c2c(c1)CCc1cc(O)ccc1-2 [Lusianthridin, 7-Methoxy-9,10-dihydrophenanthrene-2,5-diol]
- phosphorylation of the AMPK substrate ACC (pACC HTRF) [2]: increases
- phosphorylation of the AMPK substrate ACC (pACC HTRF) (AMPK substrate, ACC): increases
- fold increase in glucose uptake relative to control [3]: ~2 fold
- pACC (HTRF and western blot, pACC/total ACC) ([4]; FIGS. 19 and 20): dose-dependently increase pACC
- pACC (HTRF assay) [4, 6]: capable of activating
- phosphorylation of ACC (western blot) [5]: did not increase phosphorylation of ACC
- pACC (HTRF assay) [5, 6]: did not increase pACC
